Results on three molecules are retold here after patent US20150050235A1, “COMPOSITION FOR ATTRACTING MALE BLUEBERRY SPANWORM MOTH” (Her Majesty the Queen in Right of Canada, as represented by …, priority 2013, published 2015).

One experiment deals with Itame brunneata. As to conditions: without (Z,Z,Z)-3,6,9-17:H in the mixture; cited from earlier work.
The subject of experiment [1] is male I. argillacearia moths. Nature of the experiment: Field experiment no. 1: captures of male moths in baited Delta traps. The experiment is classed as in vivo, Itame argillacearia. As to conditions: 50 μg per constituent, rubber septa in Delta traps, n=10. The protocol:
Field Experiments. Two field experiments were conducted during the moth flight season in 2012. Traps were deployed in vegetative lowbush blueberry fields located in Farmington (field experiment no. 1) and Debert (field experiment no. 2), Nova Scotia. Lowbush blueberries are typically produced on a biennial cycle. After harvest, plants are pruned and enter a year-long vegetative phase.
In both field experiments, traps were arranged in a randomized complete block design with ten replicates in the first experiment and six replicates in the second field experiment. Counts of male moths in traps were done twice per week. Trap data were log10 (x+1) transformed to satisfy assumptions of normality and equal variance and were analyzed by ANOVA using Proc Mixed (SAS, 2001). Where significant differences were detected, Fisher's least significant difference (LSD) was used for multiple mean comparisons among treatments.
The first experiment attempted to clarify: (1) whether enantiomers of the tested epoxide compound differed in the ability to attract male I. argillacearia moths; and (2) whether a mixture of the tested epoxide and triene compounds was more attractive to male moths than each constituent alone.
Rubber septa (Wheaton, N.J., USA) loaded with treatments were placed within Delta® traps (Contech, Delta, British Columbia) with sticky inserts to capture moths. Traps were placed approximately 20 m apart (Cantelo et al., 1982; Hillier, 2001; Hillier et al., 2002), and suspended from iron stakes just above the blueberry canopy. The experiment had seven treatments.
Virgin female moths were held in 25 ml plastic Solo™ cups (TRA Cash and Carry, Truro, NS, Canada) perforated with approximately 20 5-mm holes. Traps were in the field from 9-26 Jul. 2012 and were emptied or replaced twice per week during this period.

With `CCCCCCC/C=C\C/C=C\C[C@@H]1O[C@@H]1CC` (relative stereo) [3R,4S-epoxy-(Z,Z)-6,9-17:H, Z,Z-(3R,4S)-cis-3,4-epoxy-6,9-heptadecadiene], the capture of moths entry with Itame brunneata is “captured”. Moreover, the “captures of male moths in traps (in words)” value (“captures of male moths” below) in experiment [1] was “a significant number of moths were found”.

As to `CCCCCCC/C=C\C/C=C\C[C@H]1O[C@H]1CC` [3S,4R-epoxy-(Z,Z)-6,9-17:H, Z,Z-(3S,4R)-3,4-epoxy-6,9-heptadecadiene], the “captures of male moths” value in experiment [1] is given as “lack of captured moths”. For `CC/C=C\C/C=C\C/C=C\CCCCCCC` [(Z,Z,Z)-3,6,9-17:H, Z,Z,Z-3,6,9-heptadecatriene], in experiment [1], the “captures of male moths” value is given as “Very few moths were recovered”.
